From the supplement of paper PMC6965134
± gives the standard deviation of the averaged measurements.

Assay: TIMS collisional cross section (CCS, N2) of the lipid ion; higher = larger ion cross section
Conditions: ionization mode: positive, one isomer drawn

TIMS collisional cross section (sample type: Liver)	TIMS collisional cross section (sample type: HeLa)	TIMS collisional cross section (sample type: plasma)	Compound
325.6 Å²			CCCCCCC/C=C\CCCCCCCC(=O)OC[C@H](COC(=O)CCCCCCC/C=C\CCCCCCCC)OC(=O)CCCCCCCCCCCCCCCCC [TG 17:1_18:0_18:1] (ion (formula + adduct): [C56H104O6+NH4] 1+)
	323.2 Å²		CCCCCCC/C=C\CCCCCCCC(=O)OC[C@H](COC(=O)CCCCCCC/C=C\CCCCCCCC)OC(=O)CCCCCCC/C=C\CCCCCCCC [TG 17:1_18:1_18:1] (ion (formula + adduct): [C56H102O6+NH4] 1+)
	320.8 Å²	320.6 Å²	CCCCC/C=C\C/C=C\CCCCCCCC(=O)OC[C@@H](COC(=O)CCCCCCC/C=C\CCCCCCC)OC(=O)CCCCCCC/C=C\CCCCCCCC [TG 17:1_18:1_18:2] (ion (formula + adduct): [C56H100O6+NH4] 1+)
328.8 Å²			CCCCCCC/C=C\CCCCCCCC(=O)OC[C@H](COC(=O)CCCCCCCCCCCCCCCCCC)OC(=O)CCCCCCC/C=C\CCCCCCCC [TG 17:1_18:1_19:0] (ion (formula + adduct): [C57H106O6+NH4] 1+)
	332 Å²		CCCCC/C=C\C/C=C\C/C=C\CCCCCCCCC(=O)OC[C@@H](COC(=O)CCCCCCC/C=C\CCCCCCC)OC(=O)CCCCCCC/C=C\CCCCCCCC [TG 17:1_18:1_22:3] (ion (formula + adduct): [C60H106O6+NH4] 1+)
	328.8 Å²		CC/C=C\C/C=C\C/C=C\C/C=C\C/C=C\CCCCCC(=O)OC[C@@H](COC(=O)CCCCCCC/C=C\CCCCCCC)OC(=O)CCCCCCC/C=C\CCCCCCCC [TG 17:1_18:1_22:5] (ion (formula + adduct): [C60H102O6+NH4] 1+)
	328.2 Å²		CC/C=C\C/C=C\C/C=C\C/C=C\C/C=C\C/C=C\CCC(=O)OC[C@@H](COC(=O)CCCCCCC/C=C\CCCCCCC)OC(=O)CCCCCCC/C=C\CCCCCCCC [TG 17:1_18:1_22:6] (ion (formula + adduct): [C60H100O6+NH4] 1+)
317.5 Å²		318.3 Å²	CCCCC/C=C\C/C=C\CCCCCCCC(=O)OC[C@@H](COC(=O)CCCCCCC/C=C\CCCCCCC)OC(=O)CCCCCCC/C=C\C/C=C\CCCCC [TG 17:1_18:2_18:2] (ion (formula + adduct): [C56H98O6+NH4] 1+)
		317.2 Å²	CC/C=C\C/C=C\C/C=C\CCCCCCCC(=O)OC[C@@H](COC(=O)CCCCCCC/C=C\CCCCCCC)OC(=O)CCCCCCC/C=C\C/C=C\CCCCC [TG 17:1_18:2_18:3] (ion (formula + adduct): [C56H96O6+NH4] 1+)
322.8 Å²			CCCCC/C=C\C/C=C\C/C=C\C/C=C\CCCC(=O)OC[C@@H](COC(=O)CCCCCCC/C=C\CCCCCCC)OC(=O)CCCCCCC/C=C\C/C=C\CCCCC [TG 17:1_18:2_20:4] (ion (formula + adduct): [C58H98O6+NH4] 1+)
340 Å²			CCCCCCC/C=C\CCCCCCCC(=O)OC[C@H](COC(=O)CCCCCCCCCCC/C=C\CCCCCCCC)OC(=O)CCCCCCCCC/C=C\CCCCCCCC [TG 17:1_20:1_22:1] (ion (formula + adduct): [C62H114O6+NH4] 1+)
322.2 Å²			CCCC/C=C\C/C=C\CCCCCCCC(=O)OC[C@H](COC(=O)CCC/C=C\C/C=C\C/C=C\C/C=C\CCCCC)OC(=O)CCCCCCC/C=C\C/C=C\CCCCC [TG 17:2_18:2_20:4] (ion (formula + adduct): [C58H96O6+NH4] 1+)
		330.6 Å²	CCCCCCCC/C=C\CCCCCCCC(=O)OC[C@@H](COC(=O)CCCCCCCCCCCCCCCCC)OC(=O)CCCCCCCCCCCCCCCCC [TG 18:0_18:0_18:1] (ion (formula + adduct): [C57H108O6+NH4] 1+)
344.1 Å²			CCCCCCCCCCCCCCCCCCCCCC(=O)OC[C@@H](COC(=O)CCCCCCCCCCCCCCCCC)OC(=O)CCCCCCCCCCCCCCCCC [TG 18:0_18:0_22:0] (ion (formula + adduct): [C61H118O6+NH4] 1+)
		328.45 ± 0.49 Å²	CCCCCCCC/C=C\CCCCCCCC(=O)OC[C@@H](COC(=O)CCCCCCCCCCCCCCCCC)OC(=O)CCCCCCC/C=C\CCCCCCCC [TG 18:0_18:1_18:1] (ion (formula + adduct): [C57H106O6+NH4] 1+)
326.4 Å²	325.1 Å²	326.25 ± 0.49 Å²	CCCCC/C=C\C/C=C\CCCCCCCC(=O)OC[C@@H](COC(=O)CCCCCCCCCCCCCCCCC)OC(=O)CCCCCCC/C=C\CCCCCCCC [TG 18:0_18:1_18:2] (ion (formula + adduct): [C57H104O6+NH4] 1+)
324.1 Å²			CC/C=C\C/C=C\C/C=C\CCCCCCCC(=O)OC[C@@H](COC(=O)CCCCCCCCCCCCCCCCC)OC(=O)CCCCCCC/C=C\CCCCCCCC [TG 18:0_18:1_18:3] (ion (formula + adduct): [C57H102O6+NH4] 1+)

TIMS collisional cross section (sample type: Liver)	TIMS collisional cross section (sample type: HeLa)	TIMS collisional cross section (sample type: plasma)	Compound
	333.7 Å²	334.1 Å²	CCCCCCCC/C=C\CCCCCCCCCC(=O)OC[C@@H](COC(=O)CCCCCCCCCCCCCCCCC)OC(=O)CCCCCCC/C=C\CCCCCCCC [TG 18:0_18:1_20:1] (ion (formula + adduct): [C59H110O6+NH4] 1+)
342 Å²	341.8 Å²	341.9 Å²	CCCCCCCC/C=C\CCCCCCCC(=O)O[C@H](COC(=O)CCCCCCCCCCCCCCCCC)COC(=O)CCCCCCCCCCCCCCCCCCCCC [TG 18:0_18:1_22:0] (ion (formula + adduct): [C61H116O6+NH4] 1+)
	339.3 Å²		CCCCCCCC/C=C\CCCCCCCCCCCC(=O)OC[C@@H](COC(=O)CCCCCCCCCCCCCCCCC)OC(=O)CCCCCCC/C=C\CCCCCCCC [TG 18:0_18:1_22:1] (ion (formula + adduct): [C61H114O6+NH4] 1+)
	336.5 Å²		CCCCC/C=C\C/C=C\C/C=C\CCCCCCCCC(=O)OC[C@@H](COC(=O)CCCCCCCCCCCCCCCCC)OC(=O)CCCCCCC/C=C\CCCCCCCC [TG 18:0_18:1_22:3] (ion (formula + adduct): [C61H110O6+NH4] 1+)
333.4 Å²	333.1 Å²		CC/C=C\C/C=C\C/C=C\C/C=C\C/C=C\C/C=C\CCC(=O)OC[C@@H](COC(=O)CCCCCCCCCCCCCCCCC)OC(=O)CCCCCCC/C=C\CCCCCCCC [TG 18:0_18:1_22:6] (ion (formula + adduct): [C61H104O6+NH4] 1+)
330.3 Å²			CCCCC/C=C\C/C=C\CCCCCCCCCC(=O)OC[C@@H](COC(=O)CCCCCCCCCCCCCCCCC)OC(=O)CCCCCCC/C=C\C/C=C\CCCCC [TG 18:0_18:2_20:2] (ion (formula + adduct): [C59H106O6+NH4] 1+)
	335.4 Å²		CCCCC/C=C\C/C=C\C/C=C\C/C=C\CCCCCC(=O)OC[C@@H](COC(=O)CCCCCCCCCCCCCCCCC)OC(=O)CCCCCCC/C=C\C/C=C\CCCCC [TG 18:0_18:2_22:4] (ion (formula + adduct): [C61H106O6+NH4] 1+)
		325.1 Å²	CC/C=C\C/C=C\C/C=C\C/C=C\C/C=C\CCCC(=O)OC[C@@H](COC(=O)CCCCCCCCCCCCCCCCC)OC(=O)CCCCCCC/C=C\C/C=C\C/C=C\CC [TG 18:0_18:3_20:5] (ion (formula + adduct): [C59H98O6+NH4] 1+)
346.5 Å²			CCCCCCCCCCCCCCCCCCCCCC(=O)OC[C@@H](COC(=O)CCCCCCCCCCCCCCCCC)OC(=O)CCCCCCCCCCCCCCCCCC [TG 18:0_19:0_22:0] (ion (formula + adduct): [C62H120O6+NH4] 1+)
349.3 Å²		349.1 Å²	CCCCCCCCCCCCCCCCCCCCCC(=O)OC[C@@H](COC(=O)CCCCCCCCCCCCCCCCC)OC(=O)CCCCCCCCCCCCCCCCCCC [TG 18:0_20:0_22:0] (ion (formula + adduct): [C63H122O6+NH4] 1+)
	334.8 Å²		CC/C=C\C/C=C\C/C=C\C/C=C\C/C=C\CCCCCC(=O)OC[C@@H](COC(=O)CCCCCCCCCCCCCCCCC)OC(=O)CCC/C=C\C/C=C\C/C=C\C/C=C\CCCCC [TG 18:0_20:4_22:5] (ion (formula + adduct): [C63H104O6+NH4] 1+)
351.7 Å²		352.7 Å²	CCCCCCCCCCCCCCCCCCCCCC(=O)OC[C@@H](COC(=O)CCCCCCCCCCCCCCCCC)OC(=O)CCCCCCCCCCCCCCCCCCCC [TG 18:0_21:0_22:0] (ion (formula + adduct): [C64H124O6+NH4] 1+)
355.9 Å²		355.2 Å²	CCCCCCCCCCCCCCCCCCCCCC(=O)OC[C@@H](COC(=O)CCCCCCCCCCCCCCCCC)OC(=O)CCCCCCCCCCCCCCCCCCCCC [TG 18:0_22:0_22:0] (ion (formula + adduct): [C65H126O6+NH4] 1+)
		352.8 Å²	CCCCCCCC/C=C\CCCCCCCCCCCC(=O)OC[C@@H](COC(=O)CCCCCCCCCCCCCCCCC)OC(=O)CCCCCCCCCCCCCCCCCCCCC [TG 18:0_22:0_22:1] (ion (formula + adduct): [C65H124O6+NH4] 1+)
		351 Å²	CCCCC/C=C\C/C=C\CCCCCCCCCCCC(=O)OC[C@@H](COC(=O)CCCCCCCCCCCCCCCCC)OC(=O)CCCCCCCCCCCCCCCCCCCCC [TG 18:0_22:0_22:2] (ion (formula + adduct): [C65H122O6+NH4] 1+)
	350.2 Å²		CCCCCCCC/C=C\CCCCCCCCCCCC(=O)OC[C@@H](COC(=O)CCCCCCCCCCCCCCCCC)OC(=O)CCCCCCCCCCC/C=C\CCCCCCCC [TG 18:0_22:1_22:1] (ion (formula + adduct): [C65H122O6+NH4] 1+)
